# System: Candida tropicalis
# Experiment: Anti-fungal activity against Candida tropicalis CGMCC 2.3739 by broth microdilution method
# Assay type: functional
row,SMILES,MIC [µg/mL]
1,COC(=O)[C@H](Cn1ccnc1)NC(=O)c1ccc(-c2ccccc2F)cc1,4
2,CC(C)COC(=O)[C@H](Cn1ccnc1)NC(=O)c1ccc(-c2ccccc2)cc1,0.0312
3,CC(C)COC(=O)[C@H](Cn1cncn1)NC(=O)c1ccc(-c2ccccc2)cc1,4
4,CC(C)OC(=O)[C@H](Cn1ccnc1)NC(=O)c1ccc(-c2ccc(F)cc2F)cc1,0.5
5,CC(C)OC(=O)[C@H](Cn1ccnc1)NC(=O)c1ccc(-c2ccc(Cl)cc2)cc1,0.25
6,CC(C)OC(=O)[C@H](Cn1ccnc1)NC(=O)c1ccc(-c2ccc(C(F)(F)F)cc2)cc1,2
7,CC(C)OC(=O)[C@H](Cn1ccnc1)NC(=O)c1ccc(-c2ccccc2)cc1,0.0625
8,CC(C)COC(=O)[C@H](Cn1ccnc1)NC(=O)c1ccc(-c2ccccc2Cl)cc1,0.5

# The remaining compounds from weak to strong by MIC, led by results:
row,MIC [µg/mL],SMILES
1,8,CC(C)OC(=O)[C@H](Cn1ccnc1)NC(=O)c1ccc(-c2ccc(F)c(F)c2)cc1
2,4,Cc1ccccc1-c1ccc(C(=O)N[C@@H](Cn2ccnc2)C(=O)OCC(C)C)cc1
3,2,Cc1ccccc1-c1ccc(C(=O)N[C@@H](Cn2ccnc2)C(=O)OC(C)C)cc1
4,0.5,CC(C)OC(=O)[C@H](Cn1ccnc1)NC(=O)c1ccc(-c2ccccc2Cl)cc1
5,0.125,CCOC(=O)[C@H](Cn1ccnc1)NC(=O)c1ccc(-c2ccccc2F)cc1
6,0.0625,Cc1ccc(-c2ccc(C(=O)N[C@@H](Cn3ccnc3)C(=O)OC(C)C)cc2)cc1

# System: Candida albicans
# Experiment: Anti-fungal activity against Candida albicans SC5314 by broth microdilution method
# Assay type: functional
row,SMILES,MIC [µg/mL]
1,COC(=O)[C@H](Cn1ccnc1)NC(=O)c1ccc(-c2ccccc2F)cc1,16
2,CC(C)COC(=O)[C@H](Cn1ccnc1)NC(=O)c1ccc(-c2ccccc2)cc1,0.0312
3,CC(C)COC(=O)[C@H](Cn1cncn1)NC(=O)c1ccc(-c2ccccc2)cc1,1
4,CC(C)OC(=O)[C@H](Cn1ccnc1)NC(=O)c1ccc(-c2ccc(F)cc2F)cc1,1
5,CC(C)OC(=O)[C@H](Cn1ccnc1)NC(=O)c1ccc(-c2ccc(Cl)cc2)cc1,0.25
6,CC(C)OC(=O)[C@H](Cn1ccnc1)NC(=O)c1ccc(-c2ccc(C(F)(F)F)cc2)cc1,> 16
7,CC(C)OC(=O)[C@H](Cn1ccnc1)NC(=O)c1ccc(-c2ccccc2)cc1,0.0312
8,CC(C)COC(=O)[C@H](Cn1ccnc1)NC(=O)c1ccc(-c2ccccc2Cl)cc1,0.5

# Results, then the compound that gave them:
row,MIC [µg/mL],SMILES
1,> 16,CC(C)OC(=O)[C@H](Cn1ccnc1)NC(=O)c1ccc(-c2ccc(F)c(F)c2)cc1
2,> 16,Cc1ccccc1-c1ccc(C(=O)N[C@@H](Cn2ccnc2)C(=O)OCC(C)C)cc1
3,0.5,Cc1ccccc1-c1ccc(C(=O)N[C@@H](Cn2ccnc2)C(=O)OC(C)C)cc1
4,0.25,CC(C)OC(=O)[C@H](Cn1ccnc1)NC(=O)c1ccc(-c2ccccc2Cl)cc1
5,0.25,CCOC(=O)[C@H](Cn1ccnc1)NC(=O)c1ccc(-c2ccccc2F)cc1
6,0.0625,Cc1ccc(-c2ccc(C(=O)N[C@@H](Cn3ccnc3)C(=O)OC(C)C)cc2)cc1

# System: Cryptococcus neoformans
# Experiment: Anti-fungal activity against Cryptococcus neoformans CGMCC 2.3161 by broth microdilution method
# Assay type: functional
row,SMILES,MIC [µg/mL]
1,COC(=O)[C@H](Cn1ccnc1)NC(=O)c1ccc(-c2ccccc2F)cc1,2
2,CC(C)COC(=O)[C@H](Cn1ccnc1)NC(=O)c1ccc(-c2ccccc2)cc1,1
3,CC(C)COC(=O)[C@H](Cn1cncn1)NC(=O)c1ccc(-c2ccccc2)cc1,16
4,CC(C)OC(=O)[C@H](Cn1ccnc1)NC(=O)c1ccc(-c2ccc(F)cc2F)cc1,8
5,CC(C)OC(=O)[C@H](Cn1ccnc1)NC(=O)c1ccc(-c2ccc(Cl)cc2)cc1,16
6,CC(C)OC(=O)[C@H](Cn1ccnc1)NC(=O)c1ccc(-c2ccc(C(F)(F)F)cc2)cc1,> 16
7,CC(C)OC(=O)[C@H](Cn1ccnc1)NC(=O)c1ccc(-c2ccccc2)cc1,2
8,CC(C)COC(=O)[C@H](Cn1ccnc1)NC(=O)c1ccc(-c2ccccc2Cl)cc1,16

# Continued, values first:
row,MIC [µg/mL],SMILES
1,> 16,CC(C)OC(=O)[C@H](Cn1ccnc1)NC(=O)c1ccc(-c2ccc(F)c(F)c2)cc1
2,> 16,Cc1ccccc1-c1ccc(C(=O)N[C@@H](Cn2ccnc2)C(=O)OCC(C)C)cc1
3,16,Cc1ccccc1-c1ccc(C(=O)N[C@@H](Cn2ccnc2)C(=O)OC(C)C)cc1
4,16,CC(C)OC(=O)[C@H](Cn1ccnc1)NC(=O)c1ccc(-c2ccccc2Cl)cc1
5,1,CCOC(=O)[C@H](Cn1ccnc1)NC(=O)c1ccc(-c2ccccc2F)cc1
6,4,Cc1ccc(-c2ccc(C(=O)N[C@@H](Cn3ccnc3)C(=O)OC(C)C)cc2)cc1

# System: Candida albicans
# Experiment: Anti-fungal activity against Candida albicans CPCC 400523 by broth microdilution method
# Assay type: functional
row,SMILES,MIC [µg/mL]
1,COC(=O)[C@H](Cn1ccnc1)NC(=O)c1ccc(-c2ccccc2F)cc1,16
2,CC(C)COC(=O)[C@H](Cn1ccnc1)NC(=O)c1ccc(-c2ccccc2)cc1,0.25
3,CC(C)COC(=O)[C@H](Cn1cncn1)NC(=O)c1ccc(-c2ccccc2)cc1,8
4,CC(C)OC(=O)[C@H](Cn1ccnc1)NC(=O)c1ccc(-c2ccc(F)cc2F)cc1,2
5,CC(C)OC(=O)[C@H](Cn1ccnc1)NC(=O)c1ccc(-c2ccc(Cl)cc2)cc1,1
6,CC(C)OC(=O)[C@H](Cn1ccnc1)NC(=O)c1ccc(-c2ccc(C(F)(F)F)cc2)cc1,> 16
7,CC(C)OC(=O)[C@H](Cn1ccnc1)NC(=O)c1ccc(-c2ccccc2)cc1,0.25
8,CC(C)COC(=O)[C@H](Cn1ccnc1)NC(=O)c1ccc(-c2ccccc2Cl)cc1,2

# Continued, values first:
row,MIC [µg/mL],SMILES
1,> 16,CC(C)OC(=O)[C@H](Cn1ccnc1)NC(=O)c1ccc(-c2ccc(F)c(F)c2)cc1
2,> 16,Cc1ccccc1-c1ccc(C(=O)N[C@@H](Cn2ccnc2)C(=O)OCC(C)C)cc1
3,2,Cc1ccccc1-c1ccc(C(=O)N[C@@H](Cn2ccnc2)C(=O)OC(C)C)cc1
4,1,CC(C)OC(=O)[C@H](Cn1ccnc1)NC(=O)c1ccc(-c2ccccc2Cl)cc1
5,1,CCOC(=O)[C@H](Cn1ccnc1)NC(=O)c1ccc(-c2ccccc2F)cc1
6,0.5,Cc1ccc(-c2ccc(C(=O)N[C@@H](Cn3ccnc3)C(=O)OC(C)C)cc2)cc1

# System: Aspergillus fumigatus
# Experiment: Anti-fungal activity against Aspergillus fumigatus CGMCC 3.7795 by broth microdilution method
# Assay type: functional
row,SMILES,MIC [µg/mL]
1,COC(=O)[C@H](Cn1ccnc1)NC(=O)c1ccc(-c2ccccc2F)cc1,> 16
2,CC(C)COC(=O)[C@H](Cn1ccnc1)NC(=O)c1ccc(-c2ccccc2)cc1,> 16
3,CC(C)COC(=O)[C@H](Cn1cncn1)NC(=O)c1ccc(-c2ccccc2)cc1,> 16
4,CC(C)OC(=O)[C@H](Cn1ccnc1)NC(=O)c1ccc(-c2ccc(F)cc2F)cc1,> 16
5,CC(C)OC(=O)[C@H](Cn1ccnc1)NC(=O)c1ccc(-c2ccc(Cl)cc2)cc1,> 16
6,CC(C)OC(=O)[C@H](Cn1ccnc1)NC(=O)c1ccc(-c2ccc(C(F)(F)F)cc2)cc1,> 16
7,CC(C)OC(=O)[C@H](Cn1ccnc1)NC(=O)c1ccc(-c2ccccc2)cc1,> 16
8,CC(C)COC(=O)[C@H](Cn1ccnc1)NC(=O)c1ccc(-c2ccccc2Cl)cc1,> 16

# The remaining lines, values ahead:
row,MIC [µg/mL],SMILES
1,> 16,CC(C)OC(=O)[C@H](Cn1ccnc1)NC(=O)c1ccc(-c2ccc(F)c(F)c2)cc1
2,> 16,Cc1ccccc1-c1ccc(C(=O)N[C@@H](Cn2ccnc2)C(=O)OCC(C)C)cc1
3,> 16,Cc1ccccc1-c1ccc(C(=O)N[C@@H](Cn2ccnc2)C(=O)OC(C)C)cc1
4,> 16,CC(C)OC(=O)[C@H](Cn1ccnc1)NC(=O)c1ccc(-c2ccccc2Cl)cc1
5,> 16,CCOC(=O)[C@H](Cn1ccnc1)NC(=O)c1ccc(-c2ccccc2F)cc1
6,> 16,Cc1ccc(-c2ccc(C(=O)N[C@@H](Cn3ccnc3)C(=O)OC(C)C)cc2)cc1

# Reference: ChEMBL document CHEMBL3872264, “Discovery of biphenyl imidazole derivatives as potent antifungal agents: Design, synthesis, and structure-activity relationship studies” (Bioorg Med Chem, 2017)
